Settings: for molar entropy: 101.33 kPa, Small (less than 1 g) adiabatic calorimetry

CC(C)(C)c1ccc(Oc2ccc([N+](=O)[O-])cc2)cc1 [1-(tert-butyl)-4-(4-nitrophenoxy)benzene]
Settings	Glass transition temperature [°C]	Triple point temperature [K]	molar entropy [J/K/mol]
5 K, Crystal	–	–	0.4639
10 K, Crystal	–	–	3.11
15 K, Crystal	–	–	7.882
20 K, Crystal	–	–	14.05
25 K, Crystal	–	–	21.04
30 K, Crystal	–	–	28.52
35 K, Crystal	–	–	36.25
40 K, Crystal	–	–	44.07
45 K, Crystal	–	–	51.97
50 K, Crystal	–	–	59.86
60 K, Crystal	–	–	75.08
70 K, Crystal	–	–	89.8
80 K, Crystal	–	–	104.1
90 K, Crystal	–	–	117.98
100 K, Crystal	–	–	131.7
110 K, Crystal	–	–	145.09
120 K, Crystal	–	–	158.31
130 K, Crystal	–	–	171.36
140 K, Crystal	–	–	184.17
150 K, Crystal	–	–	196.89
160 K, Crystal	–	–	209.52
170 K, Crystal	–	–	222
180 K, Crystal	–	–	234.38
190 K, Crystal	–	–	246.69
200 K, Crystal	–	–	259
210 K, Crystal	–	–	271.13
220 K, Crystal	–	–	283.27
230 K, Crystal	–	–	295.33
240 K, Crystal	–	–	307.47
250 K, Crystal	–	–	319.44
260 K, Crystal	–	–	331.5
270 K, Crystal	–	–	343.55
280 K, Crystal	–	–	355.53
290 K, Crystal	–	–	367.58
298.15 K, Crystal	–	–	377.39
300 K, Crystal	–	–	379.64
310 K, Crystal	–	–	391.78
320 K, Crystal	–	–	403.92
330 K, Crystal	–	–	416.14
334.8 K, Crystal	–	–	422.04
334.8 K, Liquid	–	–	482.07
340 K, Liquid	–	–	488.97
350 K, Liquid	–	–	502.03
360 K, Liquid	–	–	514.91
370 K, Liquid	–	–	527.55
Crystal, Adiabatic calorimetry	–	334.8	–
Glass, Adiabatic calorimetry	-39.3	–	–
